From ChEMBL document CHEMBL6153162, “Receptor-Interacting Protein Kinase 1 (RIPK1) Inhibitors as Potential Treatment for Several Inflammatory and Neurodegenerative Diseases” (ACS Med Chem Lett, 2025)
pIC50: −log10 of the molar value.

Target: PI3-kinase p110-delta/p85-alpha (Homo sapiens, UniProt O00329)
Experiment: Inhibition of His-tagged full-length recombinant human PIK3CD/PIK3R1 extracted from baculovirus expression system incubated for 1 hr by FRET assay

Sequence of PI3-kinase p110-delta/p85-alpha (P27986 whole entry): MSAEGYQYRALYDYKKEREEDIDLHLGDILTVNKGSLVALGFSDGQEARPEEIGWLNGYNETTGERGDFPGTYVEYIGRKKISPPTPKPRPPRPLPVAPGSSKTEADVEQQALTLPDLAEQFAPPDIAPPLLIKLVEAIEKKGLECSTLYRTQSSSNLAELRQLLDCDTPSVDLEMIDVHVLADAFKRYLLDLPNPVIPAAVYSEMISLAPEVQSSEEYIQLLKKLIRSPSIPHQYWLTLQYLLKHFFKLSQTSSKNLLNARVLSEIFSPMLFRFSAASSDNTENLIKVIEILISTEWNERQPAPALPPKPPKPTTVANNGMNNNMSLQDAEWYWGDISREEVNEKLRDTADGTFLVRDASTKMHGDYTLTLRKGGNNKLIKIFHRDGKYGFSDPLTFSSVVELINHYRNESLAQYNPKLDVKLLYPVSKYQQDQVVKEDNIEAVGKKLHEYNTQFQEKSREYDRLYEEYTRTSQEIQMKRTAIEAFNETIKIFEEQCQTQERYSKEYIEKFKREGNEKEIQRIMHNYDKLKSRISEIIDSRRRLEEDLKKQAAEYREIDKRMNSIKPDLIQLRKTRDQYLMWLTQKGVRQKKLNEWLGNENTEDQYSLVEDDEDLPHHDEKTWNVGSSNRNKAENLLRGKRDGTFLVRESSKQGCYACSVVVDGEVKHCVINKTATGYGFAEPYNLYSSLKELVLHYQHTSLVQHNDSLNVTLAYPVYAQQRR
Sequence of PI3-kinase p110-delta/p85-alpha (O00329 whole entry): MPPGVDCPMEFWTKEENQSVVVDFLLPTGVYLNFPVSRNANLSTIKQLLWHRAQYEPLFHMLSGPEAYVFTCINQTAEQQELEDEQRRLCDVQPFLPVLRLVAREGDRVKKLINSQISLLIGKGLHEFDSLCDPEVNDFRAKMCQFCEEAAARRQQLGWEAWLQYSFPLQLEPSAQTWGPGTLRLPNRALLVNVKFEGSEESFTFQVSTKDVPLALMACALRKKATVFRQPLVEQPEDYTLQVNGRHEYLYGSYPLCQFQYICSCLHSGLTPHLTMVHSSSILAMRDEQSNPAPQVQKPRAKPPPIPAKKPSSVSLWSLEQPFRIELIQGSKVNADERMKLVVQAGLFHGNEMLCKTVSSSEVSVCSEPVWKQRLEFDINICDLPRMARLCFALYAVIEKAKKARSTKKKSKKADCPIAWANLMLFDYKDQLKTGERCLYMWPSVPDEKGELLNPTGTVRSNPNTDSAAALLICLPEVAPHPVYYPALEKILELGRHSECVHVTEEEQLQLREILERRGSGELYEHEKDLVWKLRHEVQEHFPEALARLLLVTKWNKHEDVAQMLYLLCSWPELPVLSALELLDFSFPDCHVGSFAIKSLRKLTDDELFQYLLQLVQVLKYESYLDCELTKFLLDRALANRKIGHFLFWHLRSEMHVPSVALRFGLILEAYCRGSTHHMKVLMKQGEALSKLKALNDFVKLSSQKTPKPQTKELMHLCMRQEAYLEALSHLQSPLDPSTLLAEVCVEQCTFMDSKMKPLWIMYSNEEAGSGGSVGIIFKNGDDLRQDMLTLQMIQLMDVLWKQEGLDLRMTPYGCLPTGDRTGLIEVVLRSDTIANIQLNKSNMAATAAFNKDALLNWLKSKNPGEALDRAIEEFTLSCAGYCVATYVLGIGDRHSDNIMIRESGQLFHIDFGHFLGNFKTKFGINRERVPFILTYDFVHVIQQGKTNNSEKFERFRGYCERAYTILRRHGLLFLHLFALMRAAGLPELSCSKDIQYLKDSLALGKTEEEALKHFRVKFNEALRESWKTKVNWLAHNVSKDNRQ

| SMILES | pIC50 |
| --- | --- |
| Cc1ccc(-c2ccn3nc(N)nc3c2)c(F)c1C(=O)NC(CF)CC(O)c1ccc(Cl)cc1 (stereo not drawn) | < 7.82 |
| Cc1ccc(-c2ccn3nc(N)nc3c2)c(F)c1C(=O)NC[C@@H](F)[C@H](O)c1ccc(Cl)cc1 | < 7.82 |
| Cc1ccc(-c2ccn3nc(N)nc3c2)c(F)c1C(=O)NCCC(O)c1ccc(Cl)cn1 (stereo not drawn) | < 7.82 |
| Cc1cc(F)c(-c2ccn3nc(N)nc3c2)cc1C(=O)NCCC(O)c1ccc(C(F)(F)F)cc1 (racemic) | < 7.82 |
| Cc1ccc(-c2ccn3nc(N)nc3c2)c(F)c1C(=O)NCCC(F)c1ccc(Cl)cc1 (racemic) | < 7.82 |
| Cc1ccc(-c2ccn3nc(N)nc3c2)c(F)c1C(=O)NCC(F)(F)C(O)C1CC(F)(F)C1 (single isomer, unassigned) | < 7.82 |
| COc1c(F)cccc1C(O)CCNC(=O)c1c(C)ccc(-c2ccn3nc(N)nc3c2)c1F (single isomer, unassigned) | 7.82 |
| Cc1ccc(-c2ccn3nc(N)nc3c2)c(F)c1C(=O)NCC(F)(F)C(O)c1ccc(Cl)c(Cl)c1 (single isomer, unassigned) | < 7.82 |
